Measured values from patent US20240360113A1, “AMINOARYL-INTEGRIN AGONISTS COMPOUNDS” (Texas Heart Institute, priority 2021, published 2024).
pEC50: −log10 of the molar value.

Target: T1, α4β1/VCAM-1 (Homo sapiens, UniProt P05556+P13612)
T1 construct: The Jurkat (VCAM-1 assays) and HSB (ICAM-1 assays) cell lines were obtained from American Type Culture Collection; endogenous in cells; host or cells: Jurkat (ATCC)
Assay: Static cell adhesion assay, Jurkat cells on VCAM-1 (VLA-4 agonist activity)
Assay type: cell-based
Conditions: for Group against VCAM: EC50 relative to THI0349 (average 11 uM) run on the same plate, Jurkat cells, 50% FBS; for pEC50: assay conditions reported herein, in the presence of serum, read-out: EC50 against VCAM
Method: For in vitro cell adhesion assays, compounds were dissolved in DMSO to make a series of stock solutions such that a 1:100 dilution in assay buffer would yield the desired final working concentrations in 1% DMSO (vehicle). Human VCAM-1 and ICAM-1 were purchased from R&D Systems (Minneapolis, MN). The Jurkat (VCAM-1 assays) and HSB (ICAM-1 assays) cell lines were obtained from American Type Culture Collection (Manassas, VA) and were maintained in recommended culture media.
Assays were performed as previously described in Vanderslice et al., (2010), Biochem Biophys Res Commun 400, 619-624; and Vanderslice et al., (2013) J Biol Chem 288, 19414-19428. VCAM-1 or ICAM-1 ligand in 50 μL of 50 mM Tris-HCl (pH 7.4), 150 mM NaCl, (TBS) was added to wells of a 96-well plate and allowed to coat overnight at 4° C. To maximize the window to evaluate agonist activity, a sub-optimal coating concentration of ligand was used, typically 0.5 and 5 μg/mL in 50 μL TBS for VCAM-1 and ICAM-1 respectively. This ligand concentration corresponded approximately to that which would yield <5% adhesion as determined by dose-response curves. Briefly, 2×10^6 cells were labeled for 30 minutes with calcein-AM (Molecular Probes), washed, resuspended in binding buffer, and added to triplicate wells of ligand-coated plates (2×10^5 cells/well) that had been blocked with 2% BSA. After a 30-minute incubation at 37° C., the plates were washed 3 times with binding buffer, the adherent cells were lysed, and fluorescence was measured on a Tecan Safire^2 plate reader. The binding buffer was PBS with 1 mM MgCl2, 50% FBS for α4β1/VCAM-1 assays and PBS with 2 mM MgCl2, 5 mM EGTA, 50% FBS for αLβ2/ICAM-1 assays. EC50 is defined as the concentration of compound required to achieve 50% of the maximal response.

T1 sequence (P13612 34-1032): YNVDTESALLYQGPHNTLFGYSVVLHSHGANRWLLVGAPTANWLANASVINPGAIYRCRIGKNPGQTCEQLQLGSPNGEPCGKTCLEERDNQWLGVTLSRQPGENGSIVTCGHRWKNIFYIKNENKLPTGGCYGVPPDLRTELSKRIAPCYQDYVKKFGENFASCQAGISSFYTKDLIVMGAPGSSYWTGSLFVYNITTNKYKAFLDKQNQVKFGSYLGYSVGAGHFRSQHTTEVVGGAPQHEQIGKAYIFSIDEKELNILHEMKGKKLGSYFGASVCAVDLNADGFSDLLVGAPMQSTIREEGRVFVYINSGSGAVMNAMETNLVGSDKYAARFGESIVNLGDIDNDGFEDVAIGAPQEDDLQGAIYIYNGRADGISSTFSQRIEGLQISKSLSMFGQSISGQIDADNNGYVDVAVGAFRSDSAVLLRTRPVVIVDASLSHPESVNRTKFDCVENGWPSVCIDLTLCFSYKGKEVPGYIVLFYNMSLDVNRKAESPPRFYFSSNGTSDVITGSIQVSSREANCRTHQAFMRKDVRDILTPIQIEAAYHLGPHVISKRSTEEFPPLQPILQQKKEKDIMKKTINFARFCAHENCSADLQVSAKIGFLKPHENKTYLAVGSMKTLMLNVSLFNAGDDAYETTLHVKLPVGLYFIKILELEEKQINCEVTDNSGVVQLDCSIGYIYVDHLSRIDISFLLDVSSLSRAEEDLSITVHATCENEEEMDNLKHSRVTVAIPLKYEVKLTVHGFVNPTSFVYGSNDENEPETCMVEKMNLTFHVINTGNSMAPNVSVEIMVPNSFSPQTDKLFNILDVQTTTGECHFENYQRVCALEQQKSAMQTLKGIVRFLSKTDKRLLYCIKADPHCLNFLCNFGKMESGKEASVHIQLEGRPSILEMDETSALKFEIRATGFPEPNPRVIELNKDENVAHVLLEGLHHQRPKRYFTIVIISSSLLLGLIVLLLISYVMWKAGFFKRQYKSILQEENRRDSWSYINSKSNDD
T1 sequence (P05556 21-798): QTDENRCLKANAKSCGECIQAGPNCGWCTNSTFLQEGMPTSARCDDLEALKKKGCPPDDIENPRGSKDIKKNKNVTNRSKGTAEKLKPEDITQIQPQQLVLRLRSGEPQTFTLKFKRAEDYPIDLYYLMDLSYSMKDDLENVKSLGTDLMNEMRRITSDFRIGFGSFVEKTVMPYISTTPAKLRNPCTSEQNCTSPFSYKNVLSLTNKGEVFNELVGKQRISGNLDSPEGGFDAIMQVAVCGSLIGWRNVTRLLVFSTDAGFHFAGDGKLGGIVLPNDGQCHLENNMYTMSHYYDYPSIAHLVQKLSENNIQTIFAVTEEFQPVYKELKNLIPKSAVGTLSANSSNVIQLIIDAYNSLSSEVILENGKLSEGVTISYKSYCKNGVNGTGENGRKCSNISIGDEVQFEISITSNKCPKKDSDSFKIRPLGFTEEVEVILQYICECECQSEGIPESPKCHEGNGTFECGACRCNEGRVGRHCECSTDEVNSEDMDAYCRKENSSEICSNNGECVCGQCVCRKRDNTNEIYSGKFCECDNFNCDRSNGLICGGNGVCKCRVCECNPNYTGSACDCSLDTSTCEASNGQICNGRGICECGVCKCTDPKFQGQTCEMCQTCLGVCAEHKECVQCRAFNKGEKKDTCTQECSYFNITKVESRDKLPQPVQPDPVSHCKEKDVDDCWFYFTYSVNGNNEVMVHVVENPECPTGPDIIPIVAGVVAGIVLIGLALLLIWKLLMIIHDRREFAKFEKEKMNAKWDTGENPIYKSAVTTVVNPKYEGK

Row | SMILES | Group against VCAM | pEC50
1 | COc1cccc(CN(Cc2cccc(OC)c2)c2nc(CNCC3CCN(C)CC3)cs2)c1 [Compound 130, N,N-bis(3-methoxybenzyl)-4-(((1-methylpiperidin-4-yl)methylamino)methyl)thiazol-2-amine] | III (Group III more than five times the EC50 of THI0349) | –
2 | COc1cccc(CN(Cc2cccc(OC)c2)c2nc(COCC3CCOCC3)cs2)c1 [Compound 124, N,N-bis(3-methoxybenzyl)-4-(((tetrahydro-2H-pyran-4-yl)methoxy)methyl)thiazol-2-amine] | II (Group II is more than twice that of THI0349 but less than five times THI0349's EC50) | –
3 | COc1cccc(CN(Cc2cccc(OC)c2)c2nc(COC3CCOCC3)cs2)c1 [Compound 122, N,N-bis(3-methoxybenzyl)-4-((tetrahydro-2H-pyran-4-yloxy)methyl)thiazol-2-amine] | II (Group II is more than twice that of THI0349 but less than five times THI0349's EC50) | –
4 | COc1cccc(CN(Cc2cccc(OC)c2)c2nc(CNC3CCN(C)CC3)cs2)c1 [Compound 126, N,N-bis(3-methoxybenzyl)-4-((1-methylpiperidin-4-ylamino)methyl)thiazol-2-amine] | III (Group III more than five times the EC50 of THI0349) | –
5 | CCOC(=O)c1csc(N(Cc2cccc(OC)c2)Cc2ccc3nc[nH]c3c2)n1 [Compound 120, ethyl 2-(((1H-benzo[d]imidazol-6-yl)methyl)(3-methoxybenzyl)amino)thiazole-4-carboxylate] | III (Group III more than five times the EC50 of THI0349) | –
6 | COc1cccc(CN(Cc2cccc(OC)c2)c2nc(COCCOC3CCOCC3)cs2)c1 [Compound 131, N,N-bis(3-methoxybenzyl)-4-((2-(tetrahydro-2H-pyran-4-yloxy)ethoxy)methyl)thiazol-2-amine] | I (Group I maintains at least the same potency or better up to more than twice that of the EC50 of THI0349 ran on the same plate) | –
7 | COc1cccc(CN(Cc2cccc(OC)c2)c2nc(COCC3COC3)cs2)c1 [Compound 129, N,N-bis(3-methoxybenzyl)-4-((oxetan-3-ylmethoxy)methyl)thiazol-2-amine] | II (Group II is more than twice that of THI0349 but less than five times THI0349's EC50) | –
8 | COc1cccc(CN(Cc2cccc(OC)c2)c2nc(COC3COC3)cs2)c1 [Compound 123, N,N-bis(3-methoxybenzyl)-4-((oxetan-3-yloxy)methyl)thiazol-2-amine] | II (Group II is more than twice that of THI0349 but less than five times THI0349's EC50) | –
9 | COc1ccc(CCNC(=O)c2csc(N(Cc3cccc(OC)c3)Cc3cccc(OC)c3)n2)cc1 [Compound 21, 2-(bis(3-methoxybenzyl)amino)-N-(4-methoxyphenethyl)thiazole-4-carboxamide] | I (Group I maintains at least the same potency or better up to more than twice that of the EC50 of THI0349 ran on the same plate) | –
10 | CCCC[C@@H](COC(=O)N(Cc1cccs1)Cc1cccs1)NC(=O)N[C@@H](CC(=O)OC)c1ccc2c(c1)OCO2 [THI0019, reference compound] | – | 4.48
11 | COc1cccc(CN(Cc2cccc(OC)c2)c2nc(CN(C)C3CCOCC3)cs2)c1 [Compound 125, N,N-bis(3-methoxybenzyl)-4-((methyl(tetrahydro-2H-pyran-4-yl)amino)methyl)thiazol-2-amine] | II (Group II is more than twice that of THI0349 but less than five times THI0349's EC50) | –
12 | COc1cccc(CN(Cc2cccc(OC)c2)c2nc(CNC3CCOCC3)cs2)c1 [Compound 128, N,N-bis(3-methoxybenzyl)-4-((tetrahydro-2H-pyran-4-ylamino)methyl)thiazol-2-amine] | I (Group I maintains at least the same potency or better up to more than twice that of the EC50 of THI0349 ran on the same plate) | –
13 | O=C(OCCOCCOCCOC(=O)N(Cc1cccs1)Cc1cccs1)N(Cc1cccs1)Cc1cccs1 [THI0349, reference compound] | – | 4.96
